In experiment [1] the test system is A549, MDA-MB-231, HeLa, HT-29 and Jurkat cancer cell lines. Put plainly: Antiproliferative activity over the panel of cancer cell lines. It is filed as cell-based, human. The following applies: mean over the five cancer cell lines; read-out: mean IC50 (antiproliferative activity). An outline of the steps: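 HT-29 grown in RPMI-1640, A549, HeLa and MDA-MB-231 in DMEM, both with 10% FBS. Seeded cells treated after 24 h with 5-fold serial dilutions from 10 μM, in triplicate, for 72 h at 37 °C. Viability read by resazurin fluorescence (ex 535/em 600 nm) after 3–4 h.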

For experiment [2], the system named is quiescent PBLs. Put plainly: Cytotoxicity in human PBLs, resting. It is filed as cell-based. To be noted: PBL not stimulated with PHA; 72 h; read-out: IC50 PBLresting. The text has this:
Human PBLs were obtained from healthy donors by separation on a Lymphoprep^TM (Serumwerk Bernburg AG) gradient and were used for the evaluation of the cytotoxic potential of compounds under study in normal human cells. Buffy coats were obtained from the Blood Transfusion Service, Azienda Ospedaliera of Padova and provided at this institution for research purposes without identifier. The samples were not obtained specifically for this study, and for this reason ethical approval was not required. Informed consent was obtained from blood donors according to Italian law no. 219 (21 October 2005). Data were treated by the Blood Transfusion Service according to Italian law on personal data management “Codice in materia di protezione dati personali” (Testo Unico D.L. Giugno 30, 2003 196).
After extensive washing with saline solution (BioConcept, Hank’s Buffered Saline Solution), quiescent PBLs were resuspended (1.0 × 10^6 cells/mL) in RPMI-1640 medium supplemented with 10% fetal bovine serum. Cytotoxicity evaluations were conducted also in cultures of proliferating PBLs, stimulated with […] PHA (Irvine Scientific). Both resting and proliferating lymphocytes were seeded in 96-well plates and maintained overnight at 37 °C in a humidified 5% CO2 incubator. Serial (5-fold) dilutions of the tested compounds were added, and viability was determined 72 h later by the resazurin viability assay as described above.

Experiment [3] relates to Bovine brain tubulin. Put plainly: Inhibition of tubulin polymerization. It is filed as biochemical. The method in brief: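 Polymerization: 10 μM tubulin preincubated with compound in 0.8 M monosodium glutamate (pH 6.6) at 30 °C, chilled to 0 °C, GTP added, rewarmed to 30 °C; assembly followed by turbidity. Colchicine binding: 0.5 μM tubulin with 5 μM each [3H]colchicine and test compound, bound label collected on a DEAE-cellulose filter.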

Experiment [4] deals with HeLa cells. Put plainly: ROS production (H2DCFDA). It is filed as cell-based, human. The following applies: 10, 50 or 100 nM; 24 h. The protocol:
The mitochondrial potential was evaluated in HeLa cells by flow cytometry using the cell membrane permeable cationic dye 5,5′,6,6′-tetrachloro-1,1′,3,3′-tetraethyl-imidacarbocyanine iodide (JC-1) (Molecular Probes) as described previously. The production of ROS was measured in HeLa cells by flow cytometry using 2′,7′-dichlorodihydrofluorescein diacetate (H2DCFDA) (Molecular Probes) as described previously.

Experiment [5] concerns HeLa cells. Put plainly: Immunofluorescence labeling of microtubules. It is filed as cell-based, human. To be noted: 10 nM, 24 h. The protocol: HeLa cells were seeded at 15,000 cells/well in a NuncTM Lab-Tek 8-well Chamber SlideTM System (Thermo Fisher Scientific) and incubated under cell culture conditions for 24 h. The cells were treated with various concentrations of compounds or solvent (DMSO as control) and incubated for another 24 h.
After the pharmacological treatment, cells were rinsed with PBS and fixed with 200 μL of 4% paraformaldehyde in PBS for 15 min at room temperature. Cells were then washed twice with PBS 1X before proceeding with permeabilization and protein saturation using a blocking buffer containing 3% bovine serum albumin and 0.1% Triton X-100. Cells were maintained in the blocking buffer for 30 min at room temperature before performing immunostaining of microtubules. Cells were incubated with a murine monoclonal anti-β tubulin antibody (Sigma-Aldrich, Milano, Italy) overnight at 4 °C.
After three washes with PBS 1X, cells were incubated for 1 h at room temperature in the dark with a secondary antibody conjugated to Alexa FluorTM 488 (Invitrogen, Thermo Fisher Scientific, Waltham, MA, USA)). […]
Alterations in the microtubule cytoskeleton were documented by fluorescence microscopy using a Zeiss LSM 800 with Airyscan Confocal Spectral microscope (100× magnification) (New York, NY, USA). […]

Where two headings read alike, the source gives them in different places.

The record followed here is publication PMC9230136 (Pharmaceutics, 2022).

The term IC50 denotes the concentration at which inhibition is half-maximal.

On to `Cc1cc(Nc2ccc(F)cc2)n2nc(NCCCc3ccccc3)nc2n1` [Compound 8q], for which the 50% inhibitory concentration (IC50) in experiment [1] is 83 nM; in experiment [2], over 10000 nM; in experiment [3] (read-out: IC50 tubulin polymerization), 520 nM; in experiment [3] (tubulin at 10 μM, read-out: Tubulin Assembly IC50 ± SD), 390 ± 20 nM. Moreover, the “fold more potent than CA-4, tubulin polymerization” value in experiment [3] is on record as “about 2 fold”. Further, in experiment [4], the ROS production result is recorded as “significantly increased ROS production in a dose-dependent manner”. The microtubule network organization result in experiment [5] was “microtubules were disorganized, and the cells developed a spherical morphology”.
